What was measured:
[1] = target: T1, GST-TIE2 (intracellular domains of human TIE2) (Homo sapiens, UniProt Q02763); test: TIE-2 Enzyme Assay (TIE2-E), LANCE method; assay type: biochemical; conditions: preactivated GST-TIE2, 1 μM D1-15 peptide, 80 uM ATP, 30 mins at room temperature; pIC50 = -log IC50 in Molar
T1 construct: made in house
Source text: The TIE-2 enzyme assay used the LANCE method (Wallac) and GST-TIE2, baculovirus expressed recombinant constructs of the intracellular domains of human TIE2 (amino acids 762-1104, GenBank Accession # L06139) tagged by GST). The method measured the ability of the purified enzymes to catalyse the transfer of the γ-phosphate from ATP onto tyrosine residues in a biotinylated synthetic peptide, D1-15 (biotin-C6-LEARLVAYEGWVAGKKKamide). This peptide phosphorylation was detected using the following procedure: for enzyme preactivation, GST-TIE2 was incubated for 30 mins at room temperature with 2 mM ATP, 5 mM MgCl2 and 12.5 mM DTT in 22.5 mM HEPES buffer (pH7.4). Preactivated GST-TIE2 was incubated for 30 mins at room temperature in 96 well plates with 1 μM D1-15 peptide, 80 uM ATP, 10 mM MgCl2, 0.1 mg/ml BSA and the test compound (diluted from a 10 mM stock in DMSO, final DMSO concentration was 2.4%) in 1 mM HEPES (pH7.4). The reaction was stopped by the addition of EDTA (final concentration 45 mM). Streptavidin linked-APC (allophycocyanin, Molecular Probe) and Europium-labeled anti-phosphorylated tyrosine antibody (Wallac) were then added at the final concentration of 17 μg/well and 2.1 μg/well, respectively. The APC signal was measured using an ARVO multilabel counter. (Wallac Berthold Japan). The percent inhibition of activity was calculated relative to blank control wells.
The concentration of test compound that inhibits 50% of activity (IC50) was interpolated using nonlinear regression (Levernberg-Marquardt) and the equation, y=Vmax (1−x/(K+x))+Y2, where “K” was equal to the IC50. The IC50 values were converted to pIC50 values, i.e., −log IC50 in Molar concentration.
Test compounds are employed in free or salt form.

[2] = target: GSK-3β (Homo sapiens, UniProt P49841); test: GSK3 scintillation proximity assay (SPA) kinase assay; assay type: biochemical; conditions: 20 nM kinase, 2.5 uM ATP, biotinylated glycogen synthase peptide, 40 minutes at room temperature; -log IC50 in Molar; read-out: GSK-3 pIC50 (converted)
Source text: The phosphorylated biotinylated peptide is then captured onto streptavidin coated scintillation proximity assay (SPA) beads from Amersham Technology, where the signal from the ^33P is amplified via the scintillant contained in the beads.
GSK-3β is commercially available or may be cloned and expressed in E. coli using standard techniques to produce soluble, active protein. The production of active protein involves purification in two steps using Metal Chelate and Ion Exchange Chromatography. Protein eluting from Ion Exchange provides >90% pure product that may then be concentrated for use in high throughput screening.
The kinase was assayed at a concentration of 20 nM final in 100 mM HEPES, pH 7.2 containing 10 mM magnesium chloride, 0.1 mg/mL bovine serum albumin, 1 mM dithiothreitol, 0.3 mg/mL heparin, 2.8 uM peptide substrate, 2.5 uM ATP, and 0.2 uCi/well [[…]-^33P]-ATP. After 40 minutes incubation at room temperature, the reaction was stopped by addition of 100 mM EDTA and […] in 100 mM HEPES, pH7.2 followed by an additional solution of diluted Streptavidin coated SPA beads in PBS, pH 7.2 to give a final concentration of 0.25 mg of beads per assay well in a 96-well microtiter plate.
10 mM stock solutions of the compounds of the invention in 100% DMSO are generated as a first step in the screening process. The second step involves the creation of dose response plates where these compounds are diluted 10-fold in 100% DMSO to 1 mM concentrations and subsequently serially diluted 3-fold in 100% DMSO across the plate by automated liquid handling such that the final top concentration of inhibitor is 0.033 mM in the 30 uL kinase assay. The third step involves the creation of the assay plates. This is achieved by transferring 1 uL of the compounds to assay plates by automated liquid handling. The fourth step is to perform the assay as described and count the resulting plates in the Packard TopCount NXT microplate scintillation and luminescence counter.
The final step is data acquisition and analysis where IC50 values are generated for each compound by normalizing curve data to the equation 100*(U1−C2)/(C1−C2) (where U1 is the cpm value, C2 is the background, and C1 is the maximum number of counts), then fitting the normalized data to the equation y=Vmax*(1−(x/(K+x))). The IC50 values were converted to pIC50 values, i.e., −log IC50 in Molar concentration. The data is expressed below in Table 1.

GSK-3β, sequence (P49841 whole entry, species assumed): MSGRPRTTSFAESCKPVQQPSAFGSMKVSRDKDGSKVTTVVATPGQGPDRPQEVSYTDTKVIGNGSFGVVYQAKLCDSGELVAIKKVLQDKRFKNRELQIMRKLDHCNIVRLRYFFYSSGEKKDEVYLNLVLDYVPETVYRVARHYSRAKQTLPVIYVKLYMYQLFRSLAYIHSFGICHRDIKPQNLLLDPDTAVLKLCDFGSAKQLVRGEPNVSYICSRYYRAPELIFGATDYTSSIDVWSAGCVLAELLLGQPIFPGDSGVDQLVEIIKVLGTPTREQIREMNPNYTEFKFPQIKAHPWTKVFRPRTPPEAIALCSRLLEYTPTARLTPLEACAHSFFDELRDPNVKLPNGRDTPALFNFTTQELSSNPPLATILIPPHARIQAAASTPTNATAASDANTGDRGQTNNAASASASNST
T1 sequence (Q02763 762-1104): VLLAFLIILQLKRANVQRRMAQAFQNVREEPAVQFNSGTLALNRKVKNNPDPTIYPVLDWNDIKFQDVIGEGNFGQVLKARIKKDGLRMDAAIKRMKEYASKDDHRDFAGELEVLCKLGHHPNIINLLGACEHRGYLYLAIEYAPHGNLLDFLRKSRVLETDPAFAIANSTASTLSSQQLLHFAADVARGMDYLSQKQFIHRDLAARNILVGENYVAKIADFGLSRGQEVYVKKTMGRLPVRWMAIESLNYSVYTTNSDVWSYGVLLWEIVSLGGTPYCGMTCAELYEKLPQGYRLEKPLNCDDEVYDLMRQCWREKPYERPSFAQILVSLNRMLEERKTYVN

IC50 [1]	IC50 [2]	Compound
100 to 1000 nM	< 100 nM	CS(=O)(=O)CCNC(=O)c1ccc(/C=N/Nc2ncnc3c2cnn3-c2ccccc2)cc1 [Example 38, N-[2-(Methylsulfonyl)ethyl]-4-{(E)-[(1-phenyl-1H-pyrazolo[3,4-d]pyrimidin-4-yl)hydrazono]methyl}benzamide]
1000 to 10000 nM	100 to 1000 nM	NCCNC(=O)c1ccc(/C=N/Nc2ncnc3c2cnn3-c2ccccc2)cc1 [Example 31, N-(2-Aminoethyl)-4-{(E)-[(1-phenyl-1H-pyrazolo[3,4-d]pyrimidin-4-yl)hydrazono]methyl}benzamide]
100 to 1000 nM	< 100 nM	OCCOc1cccc(/C=N/Nc2ncnc3c2cnn3-c2ccccc2)c1 [Example 5, 3-(2-Hydroxyethoxy)benzaldehyde (1-phenyl-1H-pyrazolo[3,4-d]pyrimidin-4-yl)hydrazone]
1000 to 10000 nM	1000 to 10000 nM	CCOc1cc(/C=N/Nc2ncnc3c2cnn3-c2ccccc2)ccc1O [Example 49, 3-Ethoxy-4-hydroxy-benzaldehyde (1-phenyl-1H-pyrazolo[3,4-d]pyrimidin-4-yl)hydrazone]
100 to 1000 nM	100 to 1000 nM	NCCCNC(=O)c1ccc(/C=N/Nc2ncnc3c2cnn3-c2ccccc2)cc1 [Example 32, N-(3-aminopropyl)-4-{(E)-[(1-phenyl-1H-pyrazolo[3,4-d]pyrimidin-4-yl)hydrazono]methyl}benzamide]
1000 to 10000 nM	100 to 1000 nM	COc1cc(/C=N/Nc2ncnc3c2cnn3-c2ccccc2)cc(C(=O)O)c1O [Example 47, 3-Carboxy-4-Hydroxy-5-methoxybenzaldehyde (1-phenyl-1H-pyrazolo[3,4-d]pyrimidin-4-yl)hydrazone]
100 to 1000 nM	100 to 1000 nM	O=C(NCCc1c[nH]cn1)c1ccc(/C=N/Nc2ncnc3c2cnn3-c2ccccc2)cc1 [Example 29, N[2-(1H-imidazol-4-yl)ethyl]-4-{(E)-[(1-phenyl-1H-pyrazolo[3,4-d]pyrimidin-4-yl)hydrazono]methyl}benzamide]
100 to 1000 nM	100 to 1000 nM	COc1cc(/C=N/Nc2ncnc3c2cnn3-c2ccccc2)cc(Br)c1O [Example 48, 3-Bromo-4-hydroxy-3-methoxybenzaldehyde (1-phenyl-1H-pyrazolo[3,4-d]pyrimidin-4-yl)hydrazone]
100 to 1000 nM	100 to 1000 nM	O=C(O)c1ccc(/C=N/Nc2ncnc3c2cnn3-c2ccccc2)cc1 [Example 24, 4-{(E)-[(1-phenyl-1H-pyrazolo[3,4-d]pyrimidin-4-yl)hydrazono]methyl}benzoic Acid]
1000 to 10000 nM	1000 to 10000 nM	O=C(O)c1cccc(/C=N/Nc2ncnc3c2cnn3-c2ccccc2)c1 [Example 39, 3-{(E)-[(1-phenyl-1H-pyrazolo[3,4-d]pyrimidin-4-yl)hydrazono]methyl}benzoic Acid]
1000 to 10000 nM	< 100 nM	C(=NNc1ncnc2c1cnn2-c1ccccc1)c1cccnc1 [Example 2, Nicotinaldehyde (1-phenyl-1H-pyrazolo[3,4-d]pyrimidin-4-yl)hydrazone]
100 to 1000 nM	< 100 nM	COc1cc(/C=N/Nc2ncnc3c2cnn3-c2ccccc2)ccc1O [Example 43, 4-Hydroxy-3-methoxybenzaldehyde (1-phenyl-1H-pyrazolo[3,4-d]pyrimidin-4-yl)hydrazone]
100 to 1000 nM	100 to 1000 nM	C(=N\Nc1ncnc2c1cnn2-c1ccccc1)/c1ccncc1 [Example 1, Isonicotinaldehyde (1-phenyl-1H-pyrazolo[3,4-d]pyrimidin-4-yl)hydrazone]
1000 to 10000 nM	< 100 nM	[O-][n+]1ccc(/C=N/Nc2ncnc3c2cnn3-c2ccccc2)cc1 [Example 58, Pyridine-N-oxide-4-carboxaldehyde [1-(phenyl)-1H-pyrazolo[3,4-d]pyrimidin-4-yl]hydrazone]
100 to 1000 nM	< 100 nM	O=C(NCCN1CCCCC1)c1ccc(/C=N/Nc2ncnc3c2cnn3-c2ccccc2)cc1 [Example 33, 4-{(E)-[(1-phenyl-1H-pyrazolo[3,4-d]pyrimidin-4-yl)hydrazono]methyl}-N-(2-piperidin-1-ylethyl)benzamide]
100 to 1000 nM	< 100 nM	NS(=O)(=O)c1ccc(/C=N/Nc2ncnc3c2cnn3-c2ccccc2)cc1 [Example 20, 4-{(E)-[(1-phenyl-1H-pyrazolo[3,4-d]pyrimidin-4-yl)hydrazonol]methyl}benzenesulfonamide]
100 to 1000 nM	100 to 1000 nM	CN(C)CCN1CCN(C(=O)c2ccc(/C=N/Nc3ncnc4c3cnn4-c3ccccc3)cc2)CC1 [Example 35, 4-({4-[2-(Dimethylamino)ethyl]piperazin-1-yl}carbonyl)benzaldehyde (1-phenyl-1H-pyrazolo[3,4-d]pyrimidin-4-yl)hydrazone]
100 to 1000 nM	100 to 1000 nM	COc1ccc(/C=N/Nc2ncnc3c2cnn3-c2ccccc2)cc1O [Example 45, 3-Hydroxy-4-methoxybenzaldehyde (1-phenyl-1H-pyrazolo[3,4-d]pyrimidin-4-yl)hydrazone]
